Experimental findings from BindingDB's records for doi:10.1016/j.ejmech.2015.10.042 (China Pharmaceutical University, 2016) are described below.

A word on the EC50: it is the concentration needed to bring the measured effect to its halfway point.

The nature of the assay: Agonist activity at vitamin D3 receptor in human HL-60 cells assessed as induction of cell differentiation after 96 hrs by NBT dye-based microscopic analysis.

On to `CCN(CC)CCNC(=O)c1ccc(C(CC)(CC)c2ccc(OCC(O)C(C)(C)C)c(C)c2)n1CC` (stereo unspecified), for which the EC50 was determined as 110 nM.

For `CCn1c(C(=O)N[C@@H](C)CO)ccc1C(CC)(CC)c1ccc(OCC(O)C(C)(C)C)c(C)c1` (stereo partly specified), the EC50 was found to be 8.5 nM.

As for `C=CCN(C)C(=O)c1ccc(C(CC)(CC)c2ccc(OCC(=O)C(C)(C)C)c(C)c2)n1CC`, the EC50 is 21600 nM.

In the case of `CCN(CC)CCNC(=O)c1ccc(C(CC)(CC)c2ccc(OCC(=O)C(C)(C)C)c(C)c2)n1CC`, the EC50 came to 91 nM.

On to `CCOC(=O)c1ccc(OC(=O)c2ccc(C(CC)(CC)c3ccc(OCC(=O)C(C)(C)C)c(C)c3)n2CC)cc1`, for which the EC50 stood at 45600 nM.

For the molecule `CCn1c(C(=O)Nc2ccc(OC(F)(F)F)cc2)ccc1C(CC)(CC)c1ccc(OCC(O)C(C)(C)C)c(C)c1` (stereo unspecified), the EC50 is more than 50000 nM.

For `CCn1c(C(=O)Nc2cccc(C(F)(F)F)c2)ccc1C(CC)(CC)c1ccc(OCC(O)C(C)(C)C)c(C)c1` (stereo unspecified), the EC50 was more than 50000 nM.

For `CCOc1ccc(NC(=O)c2ccc(C(CC)(CC)c3ccc(OCC(O)C(C)(C)C)c(C)c3)n2CC)cc1` (stereo unspecified), the EC50 turned out to be 630 nM.

Regarding `CCn1c(C(=O)Oc2ccc(CCO)cc2)ccc1C(CC)(CC)c1ccc(OCC(O)C(C)(C)C)c(C)c1` (stereo unspecified), the EC50 was found to be 5100 nM.

As for `CCn1c(C(=O)OCc2ccc(F)cc2)ccc1C(CC)(CC)c1ccc(OCC(O)C(C)(C)C)c(C)c1` (stereo unspecified), the EC50 is more than 50000 nM.

In the case of `CCn1c(C(=O)NCC(OC)OC)ccc1C(CC)(CC)c1ccc(OCC(O)C(C)(C)C)c(C)c1` (stereo unspecified), the EC50 was 150 nM.

Turning to `CCn1c(C(=O)NCCCN2CCOCC2)ccc1C(CC)(CC)c1ccc(OCC(O)C(C)(C)C)c(C)c1` (stereo unspecified), the EC50 turned out to be 18 nM.

With `CCn1c(C(=O)NCCN)ccc1C(CC)(CC)c1ccc(OCC(O)C(C)(C)C)c(C)c1` (stereo unspecified), the EC50 came out at 10 nM.

With `CCn1c(C(=O)N(C)c2ccccc2)ccc1C(CC)(CC)c1ccc(OCC(O)C(C)(C)C)c(C)c1` (stereo unspecified), the EC50 stood at 6400 nM.

Regarding `C#CC(C)OC(=O)c1ccc(C(CC)(CC)c2ccc(OCC(O)C(C)(C)C)c(C)c2)n1CC` (stereo unspecified), the EC50 amounted to 200 nM.

As for `C#CCCOC(=O)c1ccc(C(CC)(CC)c2ccc(OCC(O)C(C)(C)C)c(C)c2)n1CC` (stereo unspecified), the EC50 was determined as 1030 nM.

For `CC[C@@H](C)[C@H](NC(=O)c1ccc(C(CC)(CC)c2ccc(OCC(=O)C(C)(C)C)c(C)c2)n1CC)C(=O)O`, the EC50 was found to be 10 nM.

With `CCn1c(C(=O)N(C)CC(=O)O)ccc1C(CC)(CC)c1ccc(OCC(O)C(C)(C)C)c(C)c1` (stereo unspecified), the EC50 was 740 nM.

As for `CCn1c(C(=O)Nc2ccc(OC(F)(F)F)cc2)ccc1C(CC)(CC)c1ccc(OCC(=O)C(C)(C)C)c(C)c1`, the EC50 was more than 50000 nM.

On to `CCN(CC)CCCNC(=O)c1ccc(C(CC)(CC)c2ccc(OCC(=O)C(C)(C)C)c(C)c2)n1CC`, for which the EC50 stood at 22 nM.

For `CCn1c(C(=O)NCCCN(C)C)ccc1C(CC)(CC)c1ccc(OCC(O)C(C)(C)C)c(C)c1` (stereo unspecified), the EC50 was 37 nM.

On to `CCN(CC)CCCNC(=O)c1ccc(C(CC)(CC)c2ccc(OCC(O)C(C)(C)C)c(C)c2)n1CC` (stereo unspecified), for which the EC50 stood at 66 nM.

As to `CC[C@@H](C)[C@H](NC(=O)c1ccc(C(CC)(CC)c2ccc(OCC(O)C(C)(C)C)c(C)c2)n1CC)C(=O)O` (stereo partly specified), the EC50 was found to be 2.3 nM.

As to `CCOC(=O)CN(C)C(=O)c1ccc(C(CC)(CC)c2ccc(OCC(=O)C(C)(C)C)c(C)c2)n1CC`, the concentration giving a half-maximal response (EC50) is more than 50000 nM.

For `CCn1c(C(=O)NCC(OC)OC)ccc1C(CC)(CC)c1ccc(OCC(=O)C(C)(C)C)c(C)c1`, the EC50 worked out at 130 nM.

Regarding `CCn1c(C(=O)NCCCN2CCOCC2)ccc1C(CC)(CC)c1ccc(OCC(=O)C(C)(C)C)c(C)c1`, the EC50 was 240 nM.

In the case of `CCn1c(C(=O)N(C)CCC#N)ccc1C(CC)(CC)c1ccc(OCC(=O)C(C)(C)C)c(C)c1`, the EC50 amounted to 9800 nM.

For the molecule `CCn1c(C(=O)N(C)c2ccccc2)ccc1C(CC)(CC)c1ccc(OCC(=O)C(C)(C)C)c(C)c1`, the EC50 is 18500 nM.

In the case of `CCOC(=O)CN(C)C(=O)c1ccc(C(CC)(CC)c2ccc(OCC(O)C(C)(C)C)c(C)c2)n1CC` (stereo unspecified), the EC50 is 210 nM.

As for `CCn1c(C(=O)OCc2ccccn2)ccc1C(CC)(CC)c1ccc(OCC(=O)C(C)(C)C)c(C)c1`, the EC50 is more than 50000 nM.

As for `C#CCNC(=O)c1ccc(C(CC)(CC)c2ccc(OCC(O)C(C)(C)C)c(C)c2)n1CC` (stereo unspecified), the EC50 worked out at 240 nM.

For `CCn1c(C(=O)NCCN(C)C)ccc1C(CC)(CC)c1ccc(OCC(=O)C(C)(C)C)c(C)c1`, the EC50 amounted to 77 nM.

As to `CCn1c(C(=O)OC(C)CCO)ccc1C(CC)(CC)c1ccc(OCC(=O)C(C)(C)C)c(C)c1` (stereo unspecified), the EC50 turned out to be 380 nM.

As for `CCn1c(C(=O)NCCBr)ccc1C(CC)(CC)c1ccc(OCC(=O)C(C)(C)C)c(C)c1`, the EC50 came to 1900 nM.

Take `CCn1c(C(=O)NCCCN(C)C)ccc1C(CC)(CC)c1ccc(OCC(=O)C(C)(C)C)c(C)c1`: the EC50 stood at 96 nM.

In the case of `CC[C@@H](C)[C@H](NC(=O)c1ccc(C(CC)(CC)c2ccc(OCC(O)C(C)(C)C)c(C)c2)n1CC)C(=O)OC` (stereo partly specified), the EC50 worked out at 26 nM.

Take `CCn1c(C(=O)OCc2ccc(F)cc2)ccc1C(CC)(CC)c1ccc(OCC(=O)C(C)(C)C)c(C)c1`: the half-maximal effective concentration (EC50) came out at 9500 nM.

With `C=CCN(C)C(=O)c1ccc(C(CC)(CC)c2ccc(OCC(O)C(C)(C)C)c(C)c2)n1CC` (stereo unspecified), the EC50 was 3950 nM.

For `CCn1c(C(=O)NCCN)ccc1C(CC)(CC)c1ccc(OCC(=O)C(C)(C)C)c(C)c1`, the EC50 was determined as 120 nM.

In the case of `CCn1c(C(=O)N(CCC#N)CCC#N)ccc1C(CC)(CC)c1ccc(OCC(O)C(C)(C)C)c(C)c1` (stereo unspecified), the EC50 was determined as 97 nM.

For `CC[C@@H](C)[C@H](NC(=O)c1ccc(C(CC)(CC)c2ccc(OCC(=O)C(C)(C)C)c(C)c2)n1CC)C(=O)OC`, the EC50 worked out at 590 nM.

As to `C#CCNC(=O)c1ccc(C(CC)(CC)c2ccc(OCC(=O)C(C)(C)C)c(C)c2)n1CC`, the EC50 stood at 2200 nM.

For `CCn1c(C(=O)N(CCC#N)CCC#N)ccc1C(CC)(CC)c1ccc(OCC(=O)C(C)(C)C)c(C)c1`, the EC50 was 870 nM.

Regarding `CCn1c(C(=O)NCCN(C)C)ccc1C(CC)(CC)c1ccc(OCC(O)C(C)(C)C)c(C)c1` (stereo unspecified), the EC50 was found to be 14 nM.

Consider `CCn1c(C(=O)NCCBr)ccc1C(CC)(CC)c1ccc(OCC(O)C(C)(C)C)c(C)c1` (stereo unspecified), for which the EC50 stood at 130 nM.

On to `CCn1c(C(=O)N(C)CC(=O)O)ccc1C(CC)(CC)c1ccc(OCC(=O)C(C)(C)C)c(C)c1`, for which the EC50 worked out at 1390 nM.

Consider `CCn1c(C(=O)Nc2cccc(C(F)(F)F)c2)ccc1C(CC)(CC)c1ccc(OCC(=O)C(C)(C)C)c(C)c1`, for which the EC50 is more than 50000 nM.

Turning to `CCn1c(C(=O)Oc2ccc(CC(=O)OC)cc2)ccc1C(CC)(CC)c1ccc(OCC(=O)C(C)(C)C)c(C)c1`, the EC50 is 2320 nM.

For the molecule `CCOC(=O)c1ccc(OC(=O)c2ccc(C(CC)(CC)c3ccc(OCC(O)C(C)(C)C)c(C)c3)n2CC)cc1` (stereo unspecified), the EC50 is more than 50000 nM.

Consider `C#CC(C)OC(=O)c1ccc(C(CC)(CC)c2ccc(OCC(=O)C(C)(C)C)c(C)c2)n1CC` (stereo unspecified), for which the EC50 stood at 210 nM.

For `C#CCCOC(=O)c1ccc(C(CC)(CC)c2ccc(OCC(=O)C(C)(C)C)c(C)c2)n1CC`, the EC50 is 28800 nM.

On to `CCn1c(C(=O)OCc2ccccn2)ccc1C(CC)(CC)c1ccc(OCC(O)C(C)(C)C)c(C)c1` (stereo unspecified), for which the EC50 was more than 50000 nM.

Turning to `CCOC(=O)CC(C)OC(=O)c1ccc(C(CC)(CC)c2ccc(OCC(=O)C(C)(C)C)c(C)c2)n1CC` (stereo unspecified), the EC50 was more than 50000 nM.

On to `CCOc1ccc(NC(=O)c2ccc(C(CC)(CC)c3ccc(OCC(=O)C(C)(C)C)c(C)c3)n2CC)cc1`, for which the EC50 was more than 50000 nM.

For the molecule `CCn1c(C(=O)N(C)CCC#N)ccc1C(CC)(CC)c1ccc(OCC(O)C(C)(C)C)c(C)c1` (stereo unspecified), the EC50 worked out at 1960 nM.

Regarding `CCC(CC)(c1ccc(OCC(=O)C(C)(C)C)c(C)c1)c1ccc(OCC(=O)C(C)(C)C)c(C)c1` [LG190155], the EC50 worked out at 590 nM.
